Experiments:
human MT1 receptor = target: T1, human MT1 receptor (Homo sapiens, UniProt P48039); assay: Activation of human MT1 receptor in receptor-expressing cells, intracellular Ca2+ by FLIPR; format: cell-based; details: for EC50: HEK293EBNA1 cells stably expressing human MT1 and Gq/i chimeric G protein, Ca2+ FLIPR; for Emax: maximum reaction by ramelteon taken as 100%
T1 construct: expressed in transfected cells

human MT2 receptor = target: T2, human MT2 receptor (Homo sapiens, UniProt P49286); assay: Activation of human MT2 receptor in receptor-expressing cells, intracellular Ca2+ by FLIPR; format: cell-based; details: for EC50: HEK293 cells stably expressing human MT2 and Gq/i chimeric G protein, Ca2+ FLIPR; for Emax: maximum reaction by ramelteon taken as 100%
T2 construct: expressed in transfected cells
T2 sequence (P49286 1-362): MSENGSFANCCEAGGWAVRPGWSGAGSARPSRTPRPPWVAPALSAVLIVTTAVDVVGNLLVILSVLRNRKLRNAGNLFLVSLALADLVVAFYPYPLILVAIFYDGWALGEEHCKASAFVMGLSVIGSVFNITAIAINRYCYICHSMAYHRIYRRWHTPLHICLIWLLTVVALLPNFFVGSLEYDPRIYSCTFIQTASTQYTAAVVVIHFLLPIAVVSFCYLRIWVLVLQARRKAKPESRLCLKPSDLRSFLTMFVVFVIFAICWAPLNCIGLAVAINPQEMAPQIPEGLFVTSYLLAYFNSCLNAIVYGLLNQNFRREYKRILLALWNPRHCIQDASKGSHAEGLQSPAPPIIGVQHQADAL

T1 sequence (P48039 whole entry): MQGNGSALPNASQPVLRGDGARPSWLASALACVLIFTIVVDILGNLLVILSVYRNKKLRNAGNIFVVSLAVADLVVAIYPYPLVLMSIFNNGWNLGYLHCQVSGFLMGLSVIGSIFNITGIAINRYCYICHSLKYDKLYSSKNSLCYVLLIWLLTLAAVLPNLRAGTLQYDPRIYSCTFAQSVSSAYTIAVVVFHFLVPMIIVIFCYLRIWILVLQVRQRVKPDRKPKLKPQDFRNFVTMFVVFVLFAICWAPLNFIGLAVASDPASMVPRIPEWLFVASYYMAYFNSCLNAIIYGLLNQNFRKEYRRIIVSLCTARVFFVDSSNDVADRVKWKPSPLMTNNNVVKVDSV

Compound | EC50 (human MT1 receptor) [nM] | Emax (human MT1 receptor) [%] | EC50 (human MT2 receptor) [nM] | Emax (human MT2 receptor) [%]
CC(=O)NCCc1c[nH]c2ccc(OCCOc3ccn(C)n3)cc12 [Example 2, N-[2-(5-{2-[(1-methyl-1H-pyrazol-3-yl)oxy]ethoxy}-1H-indol-3-yl)ethyl]acetamide] | 7 | 125 | 17 | 125
CC(=O)NCCc1c[nH]c2ccc(OCCOc3cnccn3)cc12 [Example 3, N-(2-{5-[2-(pyrazin-2-yloxy)ethoxy]-1H-indol-3-yl}ethyl)acetamide] | 9.9 | 94 | 51 | 127
CCOC(=O)NCCOc1ccc2[nH]c(C)c(CCNC(C)=O)c2c1 [Example 12] | 7.7 | 96 | 18 | 93
COc1ccc(OCCOc2cc3c(CCNC(C)=O)c(C)[nH]c3cc2F)cn1 [Example 16] | 10 | 100 | 100 | 82
COC(=O)NCCOc1ccc2[nH]c(C)c(CCNC(C)=O)c2c1 [Example 17] | 5.9 | 84 | 33 | 91
COC(=O)NCCOc1cc2c(CCNC(C)=O)c(C)[nH]c2cc1F [Example 19] | 5.7 | 94 | 17 | 91
CC(=O)NCCc1c[nH]c2ccc(OCCc3csc(C)n3)cc12 [Example 20] | 4.1 | 115 | 7.7 | 119
CNC(=O)NCCc1c[nH]c2ccc(OCCc3nc(C)sc3C)cc12 [Example 21] | 7 | 103 | 44 | 59
CC(=O)NCCc1c(C)[nH]c2cc(F)c(OCCn3ccc(C)n3)cc12 [Example 22] | 7.3 | 105 | 8.7 | 95
CC(=O)NCCc1c[nH]c2cc(F)c(OCCn3cc(Cl)cn3)cc12 [Example 24] | 13 | 99 | 18 | 71
CC(=O)NCCc1c[nH]c2cc(F)c(OCCc3csc(C)n3)cc12 [Example 25] | 1.5 | 105 | 2.9 | 96
CNC(=O)NCCc1c[nH]c2cc(F)c(OCCc3csc(C)n3)cc12 [Example 26] | 8.8 | 97 | 9.8 | 106
CCc1ccn(CCOc2cc3c(CCNC(C)=O)c[nH]c3cc2F)n1 [Example 27] | 8.7 | 83 | 10 | 82
COc1ccc(OCCOc2cc3c(CCNC(C)=O)c[nH]c3cc2F)cn1 [Example 28] | 6.8 | 119 | 35 | 62
CC(=O)NCCc1c(C)[nH]c2ccc(OCCn3ccc(C)n3)cc12 [Example 29] | 10 | 100 | 24 | 112
CNC(=O)NCCc1c(C)[nH]c2ccc(OCCn3ccc(C)n3)cc12 [Example 30] | 4.8 | 106 | 15 | 110
COc1ncc(OCCOc2ccc3[nH]cc(CCNC(C)=O)c3c2)cc1F [Example 32] | 3.4 | 96 | 50 | 66
COc1ncc(OCCOc2cc3c(CCNC(C)=O)c[nH]c3cc2F)cc1F [Example 33] | 4.3 | 103 | 60 | 53
CC(=O)NCC(C)c1c[nH]c2ccc(OCCOc3ccn(C)n3)cc12 (stereo not drawn) [Example 34] | 4.3 | 93 | 10 | 125
CC(=O)NCC(C)(C)c1c[nH]c2cc(F)c(OCCOc3ccn(C)n3)cc12 [Example 35] | 3.7 | 94 | 8.3 | 114
CC(=O)NCC(C)(C)c1c[nH]c2cc(F)c(OCCn3ccc(C)n3)cc12 [Example 36] | 6 | 101 | 15 | 96

— patent US9637451B2, “Indole compound” (ASTELLAS PHARMA INC., priority 2014, dated 2017)
